Results published in ChEMBL document CHEMBL1909538, “Iodine-catalyzed conjugate addition of indoles onto en-1,4-dione: a novel synthesis of 3-(1-(1H-indol-3-yl)-2-oxo-2-phenylethyl)indolin-2-ones as antibacterial and antifungal agents” (2011).
Converted amounts (≈) assume the structure as drawn.

Assays:
Aspergillus flavus [1] = assay: Antifungal activity against Aspergillus flavus at 150 ug after 48 hrs by agar well diffusion method; conditions: read-out: DIZ
Diutina rugosa [2] = assay: Antifungal activity against Candida rugosa at 100 ug after 48 hrs by agar well diffusion method; type: functional; conditions: read-out: DIZ
Saccharomyces cerevisiae [3] = assay: Antifungal activity against Saccharomyces cerevisiae MTCC 36 at 100 ug after 48 hrs by agar well diffusion method; type: functional; conditions: MTCC 36, 48 h, read-out: DIZ
Escherichia coli = assay: Antimicrobial activity against Escherichia coli MTCC 443 by broth dilution method; type: functional
Diutina rugosa [4] = assay: Antifungal activity against Candida rugosa at 150 ug after 48 hrs by agar well diffusion method; type: functional; conditions: read-out: DIZ
Saccharomyces cerevisiae [5] = assay: Antifungal activity against Saccharomyces cerevisiae MTCC 36 at 150 ug after 48 hrs by agar well diffusion method; type: functional; conditions: MTCC 36, 48 h, read-out: DIZ
Candida albicans [6] = assay: Antifungal activity against Candida albicans MTCC 227 at 150 ug after 48 hrs by agar well diffusion method; type: functional; conditions: MTCC 227, 48 h, read-out: DIZ
Aspergillus flavus [7] = assay: Antifungal activity against Aspergillus flavus at 100 ug after 48 hrs by agar well diffusion method; conditions: read-out: DIZ
Staphylococcus aureus = assay: Antimicrobial activity against Staphylococcus aureus MTCC 96 by broth dilution method; type: functional
Klebsiella pneumoniae = assay: Antimicrobial activity against Klebsiella pneumoniae MTCC 618 by broth dilution method; type: functional
Pseudomonas aeruginosa = assay: Antimicrobial activity against Pseudomonas aeruginosa MTCC 741 by broth dilution method; type: functional
[8] = test system: Staphylococcus epidermidis; assay: Antimicrobial activity against Staphylococcus epidermidis by broth dilution method; type: functional
Bacillus subtilis = assay: Antimicrobial activity against Bacillus subtilis MTCC 441 by broth dilution method; type: functional
Candida albicans [9] = assay: Antifungal activity against Candida albicans MTCC 227 at 100 ug after 48 hrs by agar well diffusion method; type: functional; conditions: MTCC 227, 48 h, read-out: DIZ
Aspergillus flavus [10] = assay: Antifungal activity against Aspergillus flavus at 50 ug after 48 hrs by agar well diffusion method; conditions: read-out: DIZ
Candida albicans [11] = assay: Antifungal activity against Candida albicans MTCC 227 at 50 ug after 48 hrs by agar well diffusion method; type: functional; conditions: MTCC 227, 48 h, read-out: DIZ
Diutina rugosa [12] = assay: Antifungal activity against Candida rugosa at 50 ug after 48 hrs by agar well diffusion method; type: functional; conditions: read-out: DIZ
Saccharomyces cerevisiae [13] = assay: Antifungal activity against Saccharomyces cerevisiae MTCC 36 at 50 ug after 48 hrs by agar well diffusion method; type: functional; conditions: MTCC 36, 48 h, read-out: DIZ

| SMILES | zone of inhibition at 150 µg/disc (Aspergillus flavus [1]) | zone of inhibition at 100 µg/disc (Diutina rugosa [2]) | zone of inhibition at 100 µg/disc (Saccharomyces cerevisiae [3]) | MIC (Escherichia coli) | zone of inhibition at 150 µg/disc (Diutina rugosa [4]) | zone of inhibition at 150 µg/disc (Saccharomyces cerevisiae [5]) | zone of inhibition at 150 µg/disc (Candida albicans [6]) | zone of inhibition at 100 µg/disc (Aspergillus flavus [7]) | MIC (Staphylococcus aureus) | MIC (Klebsiella pneumoniae) | MIC (Pseudomonas aeruginosa) | MIC [8] | MIC (Bacillus subtilis) | zone of inhibition at 100 µg/disc (Candida albicans [9]) | zone of inhibition at 50 µg/disc (Aspergillus flavus [10]) | zone of inhibition at 50 µg/disc (Candida albicans [11]) | zone of inhibition at 50 µg/disc (Diutina rugosa [12]) | zone of inhibition at 50 µg/disc (Saccharomyces cerevisiae [13]) |
| --- | --- | --- | --- | --- | --- | --- | --- | --- | --- | --- | --- | --- | --- | --- | --- | --- | --- | --- |
| O=C1Nc2ccccc2C1C(C(=O)c1ccccc1)c1c[nH]c2ccc([N+](=O)[O-])cc12 (stereo unspecified) | 0 mm | 0 mm | 0 mm | 150 µg/mL (≈ 365 µM) | 0 mm | 0 mm | 0 mm | 0 mm | 150 µg/mL (≈ 365 µM) | 150 µg/mL (≈ 365 µM) | 9.38 µg/mL (≈ 22.8 µM) | 150 µg/mL (≈ 365 µM) | 75 µg/mL (≈ 182 µM) | 0 mm | – | – | – | – |
| O=C1Nc2ccccc2C1C(C(=O)c1ccccc1)c1c[nH]c2ccc(Br)cc12 (stereo unspecified) | 0 mm | 0 mm | 0 mm | 150 µg/mL (≈ 337 µM) | 15 mm | 0 mm | 0 mm | 0 mm | 150 µg/mL (≈ 337 µM) | 150 µg/mL (≈ 337 µM) | 18.8 µg/mL (≈ 42.1 µM) | 150 µg/mL (≈ 337 µM) | 150 µg/mL (≈ 337 µM) | 0 mm | – | – | – | – |
| O=C1Nc2ccccc2C1C(C(=O)c1ccccc1)c1c[nH]c2ccccc12 (stereo unspecified) | 0 mm | 11 mm | 0 mm | 150 µg/mL (≈ 409 µM) | 16 mm | 0 mm | 0 mm | 0 mm | 75 µg/mL (≈ 205 µM) | 150 µg/mL (≈ 409 µM) | 9.38 µg/mL (≈ 25.6 µM) | 150 µg/mL (≈ 409 µM) | 75 µg/mL (≈ 205 µM) | 0 mm | – | – | – | – |
| CC1(C)S[C@@H]2[C@H](NC(=O)Cc3ccccc3)C(=O)N2[C@H]1C(=O)O [PENICILLIN G] | – | – | – | 12.5 µg/mL (≈ 37.4 µM) | – | – | – | – | 1.56 µg/mL (≈ 4.67 µM) | 6.25 µg/mL (≈ 18.7 µM) | 12.5 µg/mL (≈ 37.4 µM) | 3.12 µg/mL (≈ 9.35 µM) | 1.56 µg/mL (≈ 4.67 µM) | – | – | – | – | – |
| N#Cc1ccc2[nH]cc(C(C(=O)c3ccccc3)C3C(=O)Nc4ccccc43)c2c1 (stereo unspecified) | 0 mm | 8 mm | 0 mm | 150 µg/mL (≈ 383 µM) | 11 mm | 0 mm | 0 mm | 0 mm | 150 µg/mL (≈ 383 µM) | 150 µg/mL (≈ 383 µM) | 150 µg/mL (≈ 383 µM) | 150 µg/mL (≈ 383 µM) | 150 µg/mL (≈ 383 µM) | 0 mm | – | – | – | – |
| CN[C@@H]1[C@H](O[C@H]2[C@H](O[C@H]3[C@H](O)[C@@H](O)[C@H](N=C(N)N)[C@@H](O)[C@@H]3N=C(N)N)O[C@@H](C)[C@]2(O)C=O)O[C@@H](CO)[C@H](O)[C@H]1O [STREPTOMYCIN] | – | – | – | 6.25 µg/mL (≈ 10.7 µM) | – | – | – | – | 6.25 µg/mL (≈ 10.7 µM) | 3.12 µg/mL (≈ 5.37 µM) | 1.56 µg/mL (≈ 2.69 µM) | 3.12 µg/mL (≈ 5.37 µM) | 6.25 µg/mL (≈ 10.7 µM) | – | – | – | – | – |
| Cn1cc(C(C(=O)c2ccccc2)C2C(=O)Nc3ccccc32)c2ccccc21 (stereo unspecified) | 0 mm | 10 mm | 0 mm | 150 µg/mL (≈ 394 µM) | 16 mm | 0 mm | 0 mm | 0 mm | 150 µg/mL (≈ 394 µM) | 150 µg/mL (≈ 394 µM) | 18.8 µg/mL (≈ 49.3 µM) | 150 µg/mL (≈ 394 µM) | 150 µg/mL (≈ 394 µM) | 0 mm | – | – | – | – |
| Cc1[nH]c2ccccc2c1C(C(=O)c1ccccc1)C1C(=O)Nc2ccccc21 (stereo unspecified) | 0 mm | 9 mm | 0 mm | 150 µg/mL (≈ 394 µM) | 13 mm | 0 mm | 0 mm | 0 mm | 37.5 µg/mL (≈ 98.6 µM) | 150 µg/mL (≈ 394 µM) | 18.8 µg/mL (≈ 49.3 µM) | 150 µg/mL (≈ 394 µM) | 150 µg/mL (≈ 394 µM) | 0 mm | – | – | – | – |
| O=C1Nc2ccccc2C1C(C(=O)c1ccccc1)c1c[nH]c2ccc(Cl)cc12 (stereo unspecified) | 0 mm | 13 mm | 0 mm | 150 µg/mL (≈ 374 µM) | 17 mm | 0 mm | 0 mm | 0 mm | 18.8 µg/mL (≈ 46.8 µM) | 150 µg/mL (≈ 374 µM) | 9.38 µg/mL (≈ 23.4 µM) | 75 µg/mL (≈ 187 µM) | 150 µg/mL (≈ 374 µM) | 0 mm | – | – | – | – |
| C[C@@H]1[C@H](O)[C@@H](C)/C=C/C=C/C=C/C=C/C=C/C=C/C=C/[C@H](O[C@@H]2O[C@H](C)[C@@H](O)[C@H](N)[C@@H]2O)C[C@@H]2O[C@](O)(C[C@@H](O)C[C@@H](O)[C@H](O)CC[C@@H](O)C[C@@H](O)CC(=O)O[C@H]1C)C[C@H](O)[C@H]2C(=O)O [AMPHOTERICIN B] | – | – | – | – | – | – | – | – | – | – | – | – | – | – | 25 mm | 23.5 mm | 21 mm | 22 mm |
| Cc1[nH]c2ccc([N+](=O)[O-])cc2c1C(C(=O)c1ccccc1)C1C(=O)Nc2ccccc21 (stereo unspecified) | 0 mm | 0 mm | 0 mm | 150 µg/mL (≈ 353 µM) | 0 mm | 0 mm | 0 mm | 0 mm | 150 µg/mL (≈ 353 µM) | 150 µg/mL (≈ 353 µM) | 150 µg/mL (≈ 353 µM) | 150 µg/mL (≈ 353 µM) | 150 µg/mL (≈ 353 µM) | 0 mm | – | – | – | – |
| COC(=O)c1ccc2[nH]cc(C(C(=O)c3ccccc3)C3C(=O)Nc4ccccc43)c2c1 (stereo unspecified) | 0 mm | 10 mm | 0 mm | 150 µg/mL (≈ 353 µM) | 15 mm | 0 mm | 0 mm | 0 mm | 75 µg/mL (≈ 177 µM) | 150 µg/mL (≈ 353 µM) | 18.8 µg/mL (≈ 44.2 µM) | 150 µg/mL (≈ 353 µM) | 150 µg/mL (≈ 353 µM) | 0 mm | – | – | – | – |
| O=C1Nc2ccccc2C1C(C(=O)c1ccccc1)c1c(-c2ccccc2)[nH]c2ccccc12 (stereo unspecified) | 0 mm | 12 mm | 0 mm | 150 µg/mL (≈ 339 µM) | 17 mm | 0 mm | 0 mm | 0 mm | 75 µg/mL (≈ 169 µM) | 150 µg/mL (≈ 339 µM) | 9.38 µg/mL (≈ 21.2 µM) | 75 µg/mL (≈ 169 µM) | 150 µg/mL (≈ 339 µM) | 0 mm | – | – | – | – |
